Publication PMC5384001 (Scientific Reports, 2017)

Target: T1, GluD2-Lc-(HS2)GluN1 (Rattus norvegicus, UniProt Q63226, A654T/A766F/D767R/N763E/R768S/T764L/V761T/V765F)
T1 construct: the function of full-length receptors as well, we introduced them into the GluD2 lurcher mutant (GluD2-Lc); expressed in transfected cells; host or cells: Xenopus laevis oocytes injected with cRNA
T1 sequence (Q63226 24-1007 A654T/V761T/N763E/T764L/V765F/A766F/D767R/R768S): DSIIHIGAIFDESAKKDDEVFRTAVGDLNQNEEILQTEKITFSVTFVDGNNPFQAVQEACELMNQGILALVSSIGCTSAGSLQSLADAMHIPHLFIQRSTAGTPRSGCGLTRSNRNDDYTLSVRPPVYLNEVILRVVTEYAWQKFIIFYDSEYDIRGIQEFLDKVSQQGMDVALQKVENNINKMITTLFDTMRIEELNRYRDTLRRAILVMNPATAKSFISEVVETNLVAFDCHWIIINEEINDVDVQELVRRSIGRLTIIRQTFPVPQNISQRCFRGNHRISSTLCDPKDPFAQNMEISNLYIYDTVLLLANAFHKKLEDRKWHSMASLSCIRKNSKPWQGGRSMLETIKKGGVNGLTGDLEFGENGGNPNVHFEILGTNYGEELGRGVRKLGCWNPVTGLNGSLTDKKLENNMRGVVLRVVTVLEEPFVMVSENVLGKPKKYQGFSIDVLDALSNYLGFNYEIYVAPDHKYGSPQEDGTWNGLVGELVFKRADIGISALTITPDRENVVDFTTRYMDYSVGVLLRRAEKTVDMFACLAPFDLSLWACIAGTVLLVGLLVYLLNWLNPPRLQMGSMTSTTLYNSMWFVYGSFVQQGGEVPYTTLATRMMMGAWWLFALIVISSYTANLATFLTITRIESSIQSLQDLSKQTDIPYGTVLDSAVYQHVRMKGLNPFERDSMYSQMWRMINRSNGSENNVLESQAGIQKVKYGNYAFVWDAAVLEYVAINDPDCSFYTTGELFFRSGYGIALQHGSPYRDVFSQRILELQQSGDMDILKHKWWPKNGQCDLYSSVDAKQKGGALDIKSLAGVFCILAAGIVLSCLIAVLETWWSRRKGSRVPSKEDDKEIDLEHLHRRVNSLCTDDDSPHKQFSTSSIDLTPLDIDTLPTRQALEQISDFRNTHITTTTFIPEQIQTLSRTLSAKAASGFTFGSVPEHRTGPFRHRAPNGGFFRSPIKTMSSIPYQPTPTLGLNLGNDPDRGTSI
Test: Two-electrode voltage clamp in Xenopus oocytes, inhibition of spontaneous currents
Type: cell-based
Text: All cDNAs for expression in Xenopus oocytes were cloned into the vector pSGEM[30]. Point mutants of GluD2-Lc were constructed by overlap extension PCR with mutagenic oligonucleotide primers. The GluD2-Lc-(H)GluN1 chimera was constructed by transferring the S1- and S2-encoding sequences from GluD2-LBD-(H)GluN1 to GluD2-Lc via overlap extension PCR using tail primers. The S1 and S2 sequences were transferred separately, yielding GluD2-Lc-(HS1)GluN1 and GluD2-Lc-(HS2)GluN1 constructs. GluD2-Lc-(H)GluN1 was then produced from these by another overlap extension PCR. Complementary RNA (cRNA) for injection into oocytes was synthesised from 1 μg of linearised template DNA with the mMESSAGE mMACHINE in vitro transcription kit (Ambion, Austin, TX, USA).
Oocytes were obtained by surgically removing parts of the ovaries from Xenopus laevis (Nasco, Fort Atkinson, WI, USA) anaesthetised with 1.5 g/L 3-aminobenzoic acid ethylester (Sigma, Taufkirchen, Germany). The ovary clippings were digested with 784 U/mL (4 mg/mL) collagenase type I (Worthington, Lakewood, NJ, USA) in Ca^2+-free Barth’s solution (88 mM NaCl, 1.1 mM KCl, 2.4 mM NaHCO3, 0.8 mM MgSO4, 15 mM HEPES-NaOH, pH 7.6) with gentle agitation for 1.5–2 h at 20 °C to remove the follicular cell layer. After stopping the collagenase digestion by washing with Barth’s solution (88 mM NaCl, 1.1 mM KCl, 2.4 mM NaHCO3, 0.3 mM Ca(NO3)2, 0.4 mM CaCl2, 0.8 mM MgSO4, 15 mM HEPES-NaOH, pH 7.6), defolliculated oocytes of stages V and VI were selected and maintained at 16 °C in Barth’s solution supplemented with 100 μg/mL gentamicin, 40 μg/mL streptomycin, and 63 μg/mL penicillin. Oocytes were injected with 11 ng cRNA (10 ng of each cRNA for co-expression of GluN1 and GluN2A) using a nanoliter injector (WPI, Sarasota, FL, USA). Four days after cRNA injection, current responses were recorded under voltage clamp at –70 mV with a Turbo Tec-10CD amplifier (npi electronic, Tamm, Germany) controlled by Patchmaster software (HEKA, Lambrecht, Germany). Currents were filtered with a 20 Hz low-pass filter and then digitised with a sampling rate of 50 Hz. Recording electrodes were pulled from borosilicate glass (Hilgenberg, Malsfeld, Germany) with an L/M-3P-A vertical pipette puller (List-Medical), filled with 3 M KCl, and had resistances of 0.5–5 MΩ (voltage electrode) or 0.5–1.5 MΩ (current electrode). Recordings were performed in a 50 μL chamber under constant superfusion with extracellular solution at a flow rate of 3–5 mL/min. […] Finally, Ba-NFR and then NMDGR were applied again to check for reversibility.

N[C@H](CO)C(=O)O [D-serine]
D-serine efficacy Mean ± SEM (fraction of spontaneous current inhibited by D-serine): 0.9 ± 0.4% | sensitivity to D-serine (inhibition of spontaneous currents): insensitive
